Data taken from patent US20110123562A1, “ANTI-CANCER ACTIVE SUBSTANCE FROM ANTRODIA CAMPHORATA, METHOD FOR PREPARING THE SAME AND USE THEREOF” (priority 2009, published 2011).

Tests used:
Type in all cases: cell-based
HepG2 cells [1] = experiment: Cytotoxicity (CC50) on HepG2 cells, MTS assay; conditions: concentration reducing cell viability to 50% of control in 24 h
Procedure: (§1) HepG2 cells were obtained from American Type Culture Collection, ATCC, Rockville, Md., U.S.A. and were maintained in Williams medium E (WME), containing 10 mM/L HEPES, 5 μg/mL insulin, 2 μg/mL, glucagon, 0.05 μg/mL hydrocortisone, and 5% fetal bovine serum (Gibco Life Technologies, Grand Island, N.Y., USA). Colon cancer cells (CT26, BCRC 60443), prostate cancer cells (LNCaP, BCRC 60088) and breast cancer cells (MDA-MB-231, BCRC 60425) were obtained from the Biosources Collection and Research Center (BCRC) in the Food industry Research and Development Institute (Hsinchu, Taiwan).
(§2) HepG2 cells in WME were cultured on a 96-well cell culture plate (2.5×10^4cells per well) and incubate at 37° C. with 5% CO2. After 4 hours incubation, replace the medium with different concentrations of Antrodia camphorata sample extracts. […] After 72 and 96 h of incubation, cell proliferation was determined by MTS assay (MTS-based cell titer 96 non-radioactivity cell proliferation assay, Promega, Madison, Wis., U.S.A.) so as to examine the anti-hepatoma activity. […] Cell proliferation was determined at 72 and 96 h from the MTS absorbance reading at 490 nm for each concentration compared with the control. […] The selective effect on cancer cells was expressed as SI (selective index) value. The SI value was determined as the ratio of CC50 versus EC50 for a tested sample.

[2] = system: colon cancer cells (CT26); experiment: Anti-proliferative activity against colon cancer cells
Procedure: as §1, §2

[3] = system: breast cancer cells (MDA-MB-231); experiment: Anti-proliferative activity against breast cancer cells; conditions: MDA-MB-231 breast cancer cells
Procedure: as §1, §2

[4] = system: prostate cancer cells (LNCaP); experiment: Anti-proliferative activity against prostate cancer cells
Procedure: as §1, §2

HepG2 cells [5] = experiment: Anti-proliferation of HepG2 cells, MTS assay
Procedure: as §1
HepG2 cells in WME were cultured on a 96-well cell culture plate (2.5×10^4cells per well) and incubate at 37° C. with 5% CO2. After 4 hours incubation, replace the medium with different concentrations of Antrodia camphorata sample extracts. The Antrodia camphorata extracts were dissolved in 1% dimethyl sulfoxide (DMSO) and mixed with WME medium so as to prepare extracts at different concentrations and the final concentration of DMSO was maintained below 1%. Control cultures contained only extraction solvents, and blank wells contained 100 μL growth medium with no cells. After 72 and 96 h of incubation, cell proliferation was determined by MTS assay (MTS-based cell titer 96 non-radioactivity cell proliferation assay, Promega, Madison, Wis., U.S.A.) so as to examine the anti-hepatoma activity. MTS is a colorimetric method utilizing a tetrazolium reagent. Cell proliferation was determined at 72 and 96 h from the MTS absorbance reading at 490 nm for each concentration compared with the control. […] The EC50 of a sample is defined as the median effective dose of a sample (the concentration of the sample which results in 50% of cell viability) after treating the cancer cells for a certain period of time. At least three replications of each sample were tested to confirm cell proliferation and cytotoxicity. The selective effect on cancer cells was expressed as SI (selective index) value. The SI value was determined as the ratio of CC50 versus EC50 for a tested sample.

- IC50 [2]: 48.12 ± 5.61 µg/mL
- IC50 [3]: 0.091 µg/mL
- IC50 [4]: 16.841 ± 3.41 µg/mL
- EC50 72 hours (HepG2 cells [5]; 72 h treatment, MTS): 0.1 µg/mL
- EC50 96 hours (HepG2 cells [5]; 96 h treatment, MTS): 0.08 µg/mL
Substance: 4-acetylantroquinonol B
- CC50 (HepG2 cells [1]): > 10 µg/mL
- cell viability [2]: below 50%
- cell viability [3]: below 50%
- cell viability [4]: below 50%
- anti-proliferative activity compared to crude extract (HepG2 cells [5]): 50 times
